# Tests used:
# [1] = tested on: HBV; experiment: HBV attachment and uptake assay in HepG2-NTCP-C4 cells; assay type: cell-based; conditions: HepG2-NTCP-C4 control cells
# Protocol: HBV-DNA and cccDNA were quantified by qPCR as described below. Total DNA was extracted from cells using DNeasy Blood & Tissue Kit (Qiagen, Hilden, Germany). HBV-DNA was quantified by qPCR analysis as previously reported (Honda. M. et al., J. Infect. Dis., 213, 1096-1106, 2016). The extracted DNA (50 ng) was treated with 10 U of Plasmid safe DNase I (Epicentre, Madison. WI) at 37° C. for 60 minutes and then treated at 70° C. for 30 minutes for DNase inactivation, cccDNA was quantified by qPCR analysis as previously reported (Honda, M. et al., J. Infect. Dis. 213, 1096-1106, 2016). Quantitative RT-PCR was performed as described below. The GenElute™ Mammalian Total RNA Miniprep Kit (Sigma-Aldrich) was used for extraction of total RNA, and the High Capacity cDNA Reverse Transcription Kit (Applied Biosystems, Carlsbad, CA) was used for cDNA synthesis. The 7500 Real Time PCR System (Applied Biosystems) was used for RT-PCR. Primers 5′-[…]-3′ (SEQ ID NO: 31) and 5′-[…]-3′ (SEQ ID NO: 32) and a probe 5′-FAM-[…]-MGB-3′ (SEQ ID NO: 33) were used for pregenomic RNA. Primer pairs and probes for LIPG, NTCP. […]
# When the abundance of LIPG expression was compared among different liver cell lines. […] HBV attachment was detected by qPCR of HBV-DNA at 3 hours after HBV inoculation at 4° C. in the presence or absence of the compound (heparin or heparanase). […]
# [2] = tested on: HBV; experiment: HBV attachment, uptake and replication in Huh7-LIPG cells; assay type: cell-based; conditions: Huh7-LIPG cells infected with HBV, 3 days after treatment
# Protocol: (§1) HBV-DNA and cccDNA were quantified by qPCR as described below. Total DNA was extracted from cells using DNeasy Blood & Tissue Kit (Qiagen, Hilden, Germany). HBV-DNA was quantified by qPCR analysis as previously reported (Honda. M. et al., J. Infect. Dis., 213, 1096-1106, 2016). The extracted DNA (50 ng) was treated with 10 U of Plasmid safe DNase I (Epicentre, Madison. WI) at 37° C. for 60 minutes and then treated at 70° C. for 30 minutes for DNase inactivation, cccDNA was quantified by qPCR analysis as previously reported (Honda, M. et al., J. Infect. Dis. 213, 1096-1106, 2016). Quantitative RT-PCR was performed as described below. The GenElute™ Mammalian Total RNA Miniprep Kit (Sigma-Aldrich) was used for extraction of total RNA, and the High Capacity cDNA Reverse Transcription Kit (Applied Biosystems, Carlsbad, CA) was used for cDNA synthesis. The 7500 Real Time PCR System (Applied Biosystems) was used for RT-PCR. Primers 5′-[…]-3′ (SEQ ID NO: 31) and 5′-[…]-3′ (SEQ ID NO: 32) and a probe 5′-FAM-[…]-MGB-3′ (SEQ ID NO: 33) were used for pregenomic RNA. Primer pairs and probes for LIPG, NTCP. 18SrRNA, and ACTB were obtained from the TaqMan assay reagents library.
# When the abundance of LIPG expression was compared among different liver cell lines. […] HepG2-NTCP-C4 cells with overexpression of FLAG-LIPG (HepG2-NTCP-C4-LIPG cells) were established (FIG. 2B), and the attachment and uptake of HBV into cells were assayed in the resulting cells. Heparin, which has been reported to inhibit HBV attachment (Schulze. A. et al., Hepatology 46: 1759-1768, 2007), and heparanase, an endo-β-D-glucuronidase that cleaves the heparan sulfate side chain in heparan sulfate proteoglycans (HSPGs) (Bame, KJ. Glycobiology,11: 91R-98R,2001), were used as control compounds. […] HBV attachment was detected by qPCR of HBV-DNA at 3 hours after HBV inoculation at 4° C. in the presence or absence of the compound (heparin or heparanase). […]
# [3] = tested on: HBV-cccDNA; conditions: Patent Document 1; cited from earlier work
# [4] = tested on: HBV; experiment: HBV attachment and uptake assay in HepG2-NTCP-C4-LIPG cells; assay type: cell-based; conditions: concentration-dependent
# Protocol: as §1
# When the abundance of LIPG expression was compared among different liver cell lines. […] HepG2-NTCP-C4 cells with overexpression of FLAG-LIPG (HepG2-NTCP-C4-LIPG cells) were established (FIG. 2B), and the attachment and uptake of HBV into cells were assayed in the resulting cells. Heparin, which has been reported to inhibit HBV attachment (Schulze. A. et al., Hepatology 46: 1759-1768, 2007), and heparanase, an endo-β-D-glucuronidase that cleaves the heparan sulfate side chain in heparan sulfate proteoglycans (HSPGs) (Bame, KJ. Glycobiology,11: 91R-98R,2001), were used as control compounds. Cells (HepG2-NTCP-C4-LIPG cells and HepG2-NTCP-C4 control cells) were pretreated with these compounds for 1 hour and then with HBV at 4° C. for 3 hours to allow HBV to attach the cells, washed to wash out HBV, and further incubated at 37° C. for 12 hours to detect uptake of HBV (FIG. 2C). In addition, the cells were further cultured in a conventional culture medium for 3 days after HBV inoculation to detect HBV DNA and cccDNA in the cells (FIG. 2C). HBV attachment was detected by qPCR of HBV-DNA at 3 hours after HBV inoculation at 4° C. in the presence or absence of the compound (heparin or heparanase). HBV attachment (FIG. 2D), uptake (FIG. 2E), and replication of HBV DNA and cccDNA (FIGS. 2F and 2G) were all increased in the HepG2-NTCP-C4-LIPG cells compared to the HepG2-NTCP-C4 control cells.
# Next, the effect of a LIPG inhibitor (GSK-264220A) on HBV attachment and uptake was examined. […] At the same time, this inhibitor had no effect on HepG2-NTCP-C4 control cells.
compound,measurement,setting,value
Cc1oc(S(=O)(=O)N2CCCCC2)cc1NC(=O)Nc1ccccc1 [GSK-264220A],HBV attachment and uptake,[1],no effect
same,LIPG-mediated increase in HBV replication (cccDNA),[2],reduced HBV replication
same,HBV-cccDNA,[3],effective in reducing HBV-cccDNA
same,HBV attachment (HBV-DNA),[4]; 3 hours after HBV inoculation at 4° C.,inhibited
same,HBV uptake (HBV-DNA),[4]; 12 hours after being recultured at 37° C.,inhibited
